Assay results: patent publication US12180208B1, “Pyrazolo[1,5-c]pyrido[3,4-e]pyrimidines as CK2 inhibitors” (KING FAISAL UNIVERSITY, priority 2024, dated 2024)

Columns and labels:
HCT116 (colon) = experiment: In vitro cytotoxic activity (MTT) assay, HCT116; type: cell-based; conditions: Homo sapiens, HCT-116, 96 hours exposure, read-out: Cytotoxicity activity IC50 (50% inhibition of cell proliferation)
Protocol: (§1) Compounds 1-16 were screened for their in vitro cytotoxic activity utilizing a 3-(4,5-dimethyl-thiazol-2-yl)-2,5-diphenyltetrazolium bromide (MTT) assay against selected cancer human cell lines consisting of PC3 (prostate), HCT116 (colon), A375 (melanoma), H1299 (lung), MIAPaCa-2 (pancreas), HL60 (leukemia), MCF7 (breast), MDA-MB-231 (breast) (T. Mosmann, J. Immunol. Meth., 1983, 65, 55-63). The cells were cultured at 37° C. in RMPI1640 medium supplemented with 10% fetal bovine serum, 50 IU/mL penicillin, and 50 μg/mL streptomycin in a 5% CO2 incubator. All cells were sub-cultured 3 times/week by trypsinisation. Viable cells were seeded and allowed to adhere for 12 hours before a test drug was added in 96-well plates at an initial density of 1.0×10^5 cells/mL. Tumor cell lines were separately exposed to various concentrations of the tested compounds followed by incubation at a temperature of 37° C. during 96 hours inside a medium of fresh RMPI 1640. Cells were subsequently incubated at 37° C. using MTT at 0.5 mg/mL during 4 hours. After removal of supernatant, formazan crystals were dissolved in isopropanol and the optical density was measured at 570 nm. CX-4945 was used as a positive control.

[1] = target: T1, recombinant human CK2 (holoenzyme) (Homo sapiens, UniProt P68400); experiment: CK2 Kinase Assay (33P-ATP, filter plate); type: biochemical; conditions: final ATP concentration 15 μM, 10 min at 30° C.; read-out: protein kinase CK2 IC50
T1 construct: purchased Millipore
T1 sequence (P68400 whole entry): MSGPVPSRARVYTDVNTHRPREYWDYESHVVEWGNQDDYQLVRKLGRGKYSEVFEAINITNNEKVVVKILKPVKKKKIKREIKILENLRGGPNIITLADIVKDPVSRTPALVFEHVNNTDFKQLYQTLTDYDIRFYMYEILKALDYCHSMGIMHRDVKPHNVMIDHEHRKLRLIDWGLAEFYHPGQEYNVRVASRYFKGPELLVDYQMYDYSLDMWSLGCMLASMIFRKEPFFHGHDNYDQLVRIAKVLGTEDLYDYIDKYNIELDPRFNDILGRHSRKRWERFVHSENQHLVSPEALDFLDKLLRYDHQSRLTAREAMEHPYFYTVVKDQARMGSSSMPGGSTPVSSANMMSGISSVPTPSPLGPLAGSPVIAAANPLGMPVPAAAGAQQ
T1 sequence (P67870 whole entry partner): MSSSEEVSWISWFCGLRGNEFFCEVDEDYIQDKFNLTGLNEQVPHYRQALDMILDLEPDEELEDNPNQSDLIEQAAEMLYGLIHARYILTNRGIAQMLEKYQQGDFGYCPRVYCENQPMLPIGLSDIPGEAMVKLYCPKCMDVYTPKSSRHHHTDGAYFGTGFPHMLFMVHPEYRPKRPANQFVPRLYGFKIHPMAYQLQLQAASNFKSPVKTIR
Protocol: CK2 Kinase Assay was conducted using the protocol as described in Pierre F. et al; J. Med. Chem. 2011, 54, 635-654. The tested compounds in aqueous solution were added at a volume of 10 μL to a reaction mixture comprising 10 μL of assay dilution buffer (ADB; 20 mM MOPS, pH 7.2, 25 mM β-glycerol phosphate, 5 mM EGTA, 1 mM sodium orthovanadate, and 1 mM dithiothreitol), 10 μL of substrate peptide (RRRDDDSDDD, dissolved in ADB at a concentration of 1 mM), 10 μL of recombinant human CK2 (RRββ-holoenzyme, 25 ng dissolved in ADB; Millipore). Reactions were initiated by the addition of 10 μL of ATP solution (90% 75 mMMgCl2, 75 μM ATP (final ATP concentration: 15 μM) dissolved in ADB; 10% [γ-33P] ATP (stock 1 mCi/100 μL; 3000 Ci/mmol (Perkin-Elmer) and maintained for 10 min at 30° C. The reactions were quenched with 100 μL of 0.75% phosphoric acid and then transferred to and filtered through a phosphor cellulose filter plate (Millipore). After washing each well five times with 0.75% phosphoric acid, the plate was dried under vacuum for 5 min and, following the addition of 15 μL of scintillation fluid to each well, the residual radioactivity was measured using a Wallac […] counter. The IC50 values were derived from eight concentrations of test inhibitors.

MDA-MB-231 (breast) = experiment: In vitro cytotoxic activity (MTT) assay, MDA-MB-231; type: cell-based; conditions: Homo sapiens, 96 hours exposure, read-out: Cytotoxicity activity IC50 (50% inhibition of cell proliferation)
Protocol: as §1

H1299 (lung) = experiment: In vitro cytotoxic activity (MTT) assay, H1299; type: cell-based; conditions: Homo sapiens, NCI-H1299, 96 hours exposure, read-out: Cytotoxicity activity IC50 (50% inhibition of cell proliferation)
Protocol: as §1

HL60 (leukemia) = experiment: In vitro cytotoxic activity (MTT) assay, HL60; type: cell-based; conditions: Homo sapiens, HL-60, 96 hours exposure, read-out: Cytotoxicity activity IC50 (50% inhibition of cell proliferation)
Protocol: as §1

MIAPaCa-2 (pancreas) = experiment: In vitro cytotoxic activity (MTT) assay, MIAPaCa-2; type: cell-based; conditions: Homo sapiens, MIA PaCa-2, 96 hours exposure, read-out: Cytotoxicity activity IC50 (50% inhibition of cell proliferation)
Protocol: as §1

MCF7 (breast) = experiment: In vitro cytotoxic activity (MTT) assay, MCF7; type: cell-based; conditions: Homo sapiens, 96 hours exposure, read-out: Cytotoxicity activity IC50 (50% inhibition of cell proliferation)
Protocol: as §1

A375 (melanoma) = experiment: In vitro cytotoxic activity (MTT) assay, A375; type: cell-based; conditions: Homo sapiens, A-375, 96 hours exposure, read-out: Cytotoxicity activity IC50 (50% inhibition of cell proliferation)
Protocol: as §1

PC3 (prostate) = experiment: In vitro cytotoxic activity (MTT) assay, PC3; type: cell-based; conditions: Homo sapiens, 96 hours exposure, read-out: Cytotoxicity activity IC50 (50% inhibition of cell proliferation)
Protocol: as §1

**Q.** For O=C(O)c1cc2c3cnccc3nc(Nc3cccc(Cl)c3)n2n1 [Compound 1, 6-((3-chlorophenyl)amino)pyrazolo[1,5-c]pyrido[3,4-e]pyrimidine-9-carboxylic Acid], which IC50 (HCT116 (colon)) is on record?
**A.** 3.1 µM

**Q.** What about the IC50 [1] of the same compound?
**A.** 0.055 µM

**Q.** What about the IC50 (MDA-MB-231 (breast)) of the same compound?
**A.** 4.9 µM

**Q.** And the IC50 (H1299 (lung))?
**A.** 2.5 µM

**Q.** And the IC50 (HL60 (leukemia))?
**A.** 5.1 µM

**Q.** And the IC50 (MIAPaCa-2 (pancreas))?
**A.** 1.7 µM

**Q.** What about the IC50 (MCF7 (breast)) of the same compound?
**A.** 5.6 µM

**Q.** What about the IC50 (A375 (melanoma)) of the same compound?
**A.** 4.2 µM

**Q.** And the IC50 (PC3 (prostate))?
**A.** 2.3 µM
